In brackets after ≈: the same amount, converted by molar mass. Activity calls are given as the source filed them. The rule behind the calls is not given here.
What was measured:
Escherichia coli [1] = test: Growth inhibition of Escherichia coli DH5alpha at 50 uM measured every 15 mins for 12 hrs; assay type: functional, organism-based; conditions: DH5[alpha]
Pseudomonas aeruginosa [2] = test: Antimicrobial activity against Pseudomonas aeruginosa assessed as inhibition of bacterial growth incubated for overnight by CLSI method; assay type: functional
Bacillus subtilis [3] = test: Antimicrobial activity against Bacillus subtilis assessed as inhibition of bacterial growth incubated for overnight by CLSI method; assay type: functional
Escherichia coli [4] = test: Growth inhibition of Escherichia coli DH5alpha at 25 uM measured every 15 mins for 12 hrs; assay type: functional, organism-based; conditions: DH5[alpha]
Escherichia coli [5] = test: Antimicrobial activity against Escherichia coli K-12 assessed as inhibition of bacterial growth incubated for overnight by CLSI method; assay type: functional
Escherichia coli [6] = test: Antimicrobial activity against Escherichia coli DH5alpha assessed as inhibition of bacterial growth incubated for overnight by CLSI method; assay type: functional; conditions: DH5[alpha]
Escherichia coli [7] = test: Synergistic antimicrobial activity against Escherichia coli DH5alpha assessed as fold enhancement in erythromycin potency at 150 uM incubated for overnight by CLSI method; assay type: functional, DH5[alpha]
[8] = Synergistic antimicrobial activity against Escherichia coli DH5alpha assessed as fold enhancement in erythromycin potency at 75 uM incubated for overnight by CLSI method; assay type: functional, K-12
Escherichia coli [9] = test: Synergistic antimicrobial activity against Escherichia coli DH5alpha assessed as fold enhancement in kanamycin potency at 75 uM incubated for overnight by CLSI method; assay type: functional, DH5[alpha]
Escherichia coli [10] = test: Synergistic antimicrobial activity against Escherichia coli DH5alpha assessed as fold enhancement in rifampicin potency at 75 uM incubated for overnight by CLSI method; assay type: functional, DH5[alpha]
Escherichia coli [11] = test: Synergistic antimicrobial activity against Escherichia coli K-12 assessed as enhancement in rifampicin potency at 2.5 uM; assay type: functional, organism-based
Escherichia coli [12] = test: Synergistic antimicrobial activity against Escherichia coli DH5alpha assessed as fold enhancement in tetracycline potency at 150 uM incubated for overnight by CLSI method; assay type: functional, DH5[alpha]
Escherichia coli [13] = test: Synergistic antimicrobial activity against Escherichia coli DH5alpha assessed as fold enhancement in tetracycline potency at 75 uM incubated for overnight by CLSI method; assay type: functional, DH5[alpha]
Escherichia coli [14] = test: Synergistic antimicrobial activity against Escherichia coli DH5alpha assessed as fold enhancement in rifampicin potency at 150 uM incubated for overnight by CLSI method; assay type: functional, DH5[alpha]
Escherichia coli [15] = test: Synergistic antimicrobial activity against Escherichia coli DH5alpha assessed as fold enhancement in kanamycin potency at 150 uM incubated for overnight by CLSI method; assay type: functional, DH5[alpha]
Pseudomonas aeruginosa [16] = test: Synergistic antimicrobial activity against Pseudomonas aeruginosa assessed as fold enhancement in erythromycin potency at 1 uM incubated for overnight by CLSI method; assay type: functional
Pseudomonas aeruginosa [17] = test: Synergistic antimicrobial activity against Pseudomonas aeruginosa assessed as fold enhancement in erythromycin potency at 0.5 uM incubated for overnight by CLSI method; assay type: functional
Escherichia coli [18] = test: Synergistic antimicrobial activity against Escherichia coli K-12 assessed as fold enhancement in kanamycin potency at 1.25 uM incubated for overnight by CLSI method; assay type: functional
Escherichia coli [19] = test: Synergistic antimicrobial activity against Escherichia coli K-12 assessed as fold enhancement in tetracycline potency at 0.6 uM incubated for overnight by CLSI method; assay type: functional
Escherichia coli [20] = test: Synergistic antimicrobial activity against Escherichia coli K-12 assessed as fold enhancement in erythromycin potency at 0.6 uM incubated for overnight by CLSI method; assay type: functional
Bacillus subtilis [21] = test: Synergistic antimicrobial activity against Bacillus subtilis assessed as fold enhancement in tetracyclin potency at 0.12 uM incubated for overnight by CLSI method; assay type: functional
Bacillus subtilis [22] = test: Synergistic antimicrobial activity against Bacillus subtilis assessed as fold enhancement in erythromycin potency at 0.12 uM incubated for overnight by CLSI method; assay type: functional
Escherichia coli [23] = test: Growth inhibition of Escherichia coli DH5alpha at half MIC measured every 15 mins for 12 hrs in presence of 25 uM erythromycin; assay type: functional, organism-based; conditions: DH5[alpha]
Escherichia coli [24] = test: Synergistic antimicrobial activity against Escherichia coli K-12 assessed as fold enhancement in tetracycline potency at 1.25 uM incubated for overnight by CLSI method; assay type: functional
Pseudomonas aeruginosa [25] = test: Synergistic antimicrobial activity against Pseudomonas aeruginosa assessed as fold enhancement in tetracycline potency at 1 uM incubated for overnight by CLSI method; assay type: functional
Escherichia coli [26] = test: Growth inhibition of Escherichia coli DH5alpha at half MIC measured every 15 mins for 12 hrs; assay type: functional, organism-based; conditions: DH5[alpha]
Escherichia coli [27] = test: Synergistic antimicrobial activity against Escherichia coli K-12 assessed as fold enhancement in rifampicin potency at 0.6 uM incubated for overnight by CLSI method; assay type: functional
Escherichia coli [28] = test: Synergistic antimicrobial activity against Escherichia coli K-12 assessed as fold enhancement in kanamycin potency at 0.6 uM incubated for overnight by CLSI method; assay type: functional, organism-based
Escherichia coli [29] = test: Synergistic antimicrobial activity against Escherichia coli K-12 assessed as fold enhancement in rifampicin potency at 1.25 uM incubated for overnight by CLSI method; assay type: functional
Pseudomonas aeruginosa [30] = test: Synergistic antimicrobial activity against Pseudomonas aeruginosa assessed as fold enhancement in rifampicin potency at 1 uM incubated for overnight by CLSI method; assay type: functional
Escherichia coli [31] = test: Synergistic antimicrobial activity against Escherichia coli K-12 assessed as fold enhancement in erythromycin potency at 1.25 uM incubated for overnight by CLSI method; assay type: functional
Pseudomonas aeruginosa [32] = test: Synergistic antimicrobial activity against Pseudomonas aeruginosa assessed as fold enhancement in rifampicin potency at 0.5 uM incubated for overnight by CLSI method; assay type: functional
Pseudomonas aeruginosa [33] = test: Synergistic antimicrobial activity against Pseudomonas aeruginosa assessed as fold enhancement in tetracycline potency at 0.5 uM incubated for overnight by CLSI method; assay type: functional

CC[C@H]1OC(=O)[C@H](C)[C@@H](O[C@H]2C[C@@](C)(OC)[C@@H](O)[C@H](C)O2)[C@H](C)[C@@H](O[C@@H]2O[C@H](C)C[C@H](N(C)C)[C@H]2O)[C@](C)(O)C[C@@H](C)C(=O)[C@H](C)[C@@H](O)[C@]1(C)O [ERYTHROMYCIN]
growth inhibition (GI) (Escherichia coli [1]): Active | MIC (Pseudomonas aeruginosa [2]): 200 µM (≈ 147 µg/mL) | MIC (Bacillus subtilis [3]): 0.3 µM (≈ 0.22 µg/mL) | growth inhibition (GI) (Escherichia coli [4]): inactive | MIC (Escherichia coli [5]): 700 µM (≈ 514 µg/mL) | MIC (Escherichia coli [6]): 200 µM (≈ 147 µg/mL)

c1ccc(CN2CCOCCOCCN(CCCCCCCCN3CCOCCOCCN(CCCCCCCCN4CCOCCOCCN(Cc5ccccc5)CCOCCOCC4)CCOCCOCC3)CCOCCOCC2)cc1
fold change (FC) (Escherichia coli [7]): 13 | fold change (FC) [8]: 8 | fold change (FC) (Escherichia coli [9]): 2 | fold change (FC) (Escherichia coli [10]): 18 | Activity (Escherichia coli [11]): inactive | fold change (FC) (Escherichia coli [12]): 5 | fold change (FC) (Escherichia coli [13]): 2 | fold change (FC) (Escherichia coli [14]): 18 | fold change (FC) (Escherichia coli [15]): 3 | MIC (Escherichia coli [5]): 200 µM (≈ 238 µg/mL) | MIC (Escherichia coli [6]): 300 µM (≈ 356 µg/mL)

CO[C@H]1/C=C/O[C@@]2(C)Oc3c(C)c(O)c4c(O)c(c(/C=N/N5CCN(C)CC5)c(O)c4c3C2=O)NC(=O)/C(C)=C\C=C\[C@H](C)[C@H](O)[C@@H](C)[C@@H](O)[C@@H](C)[C@H](OC(C)=O)[C@@H]1C [RIFAMPIN]
MIC (Pseudomonas aeruginosa [2]): 25 µM (≈ 20.6 µg/mL) | MIC (Escherichia coli [5]): 16 µM (≈ 13.2 µg/mL) | MIC (Escherichia coli [6]): 55 µM (≈ 45.3 µg/mL)

c1ccc(CN2CCOCCOCCN(CCCCCCCCCCCCCCCCN3CCOCCOCCN(CCCCCCCCCCCCCCCCN4CCOCCOCCN(Cc5ccccc5)CCOCCOCC4)CCOCCOCC3)CCOCCOCC2)cc1
MIC (Pseudomonas aeruginosa [2]): 2 µM (≈ 2.82 µg/mL) | fold change (FC) (Pseudomonas aeruginosa [16]): 8 | fold change (FC) (Pseudomonas aeruginosa [17]): 4 | MIC (Escherichia coli [6]): 4 µM (≈ 5.65 µg/mL)

CN(C)[C@@H]1C(O)=C(C(N)=O)C(=O)[C@@]2(O)C(O)=C3C(=O)c4c(O)cccc4[C@@](C)(O)[C@H]3C[C@@H]12 [TETRACYCLINE]
MIC (Pseudomonas aeruginosa [2]): 12 µM (≈ 5.33 µg/mL) | MIC (Bacillus subtilis [3]): 3 µM (≈ 1.33 µg/mL) | MIC (Escherichia coli [5]): 5 µM (≈ 2.22 µg/mL) | MIC (Escherichia coli [6]): 5 µM (≈ 2.22 µg/mL)

c1ccc(CN2CCOCCOCCN(CCCCCCCCCCCCCCN3CCOCCOCCN(CCCCCCCCCCCCCCN4CCOCCOCCN(Cc5ccccc5)CCOCCOCC4)CCOCCOCC3)CCOCCOCC2)cc1
fold change (FC) (Escherichia coli [18]): 2 | fold change (FC) (Escherichia coli [19]): 2 | fold change (FC) (Escherichia coli [20]): 2 | fold change (FC) (Bacillus subtilis [21]): 2 | fold change (FC) (Bacillus subtilis [22]): 2 | growth inhibition (GI) (Escherichia coli [23]): Active | fold change (FC) (Escherichia coli [24]): 5 | fold change (FC) (Pseudomonas aeruginosa [25]): 4 | growth inhibition (GI) (Escherichia coli [26]): inactive | Activity (Escherichia coli [11]): Active | MIC (Pseudomonas aeruginosa [2]): 2 µM (≈ 2.71 µg/mL) | fold change (FC) (Escherichia coli [27]): 4 | fold change (FC) (Escherichia coli [28]): inactive | fold change (FC) (Escherichia coli [29]): 30 | MIC (Bacillus subtilis [3]): 0.5 µM (≈ 0.678 µg/mL) | fold change (FC) (Pseudomonas aeruginosa [30]): 11 | fold change (FC) (Escherichia coli [31]): 9 | fold change (FC) (Pseudomonas aeruginosa [32]): 5 | fold change (FC) (Pseudomonas aeruginosa [16]): 8 | fold change (FC) (Pseudomonas aeruginosa [17]): 4 | MIC (Escherichia coli [5]): 2.5 µM (≈ 3.39 µg/mL) | fold change (FC) (Pseudomonas aeruginosa [33]): 2 | MIC (Escherichia coli [6]): 2 µM (≈ 2.71 µg/mL)

From ChEMBL document CHEMBL4680076, “Hydraphiles enhance antimicrobial potency against Escherichia coli, Pseudomonas aeruginosa, and Bacillus subtilis” (2016)
